# Measurements: ChEMBL document CHEMBL1145870, “Triethylene tetraamine: a novel telomerase inhibitor” (Bioorg Med Chem Lett, 2003)
# “And” between values parts separate entries of the source, which are not always exact repeats. Equal entries are not always repeated.
# Columns and labels:
# [1] = system: HeLa; assay: Inhibitory activity against HeLa cell line using 3-(4,5-dimethylthiazol-2-yl)-2,5-diphenyltetrazolium bromide (MTT, Sigma) assay.
# [2] = Dose required to inhibit HLF cells by 50 percent; details: Homo sapiens, read-out: LD50
smiles,measurement,setting,value
NCCNCCNCCN [TRIENTINE],IC50,[1],74.8 µM and 7.8 µM
same,CC50,[2],3100 µM
